How the values were obtained:
DmTrxR (containing Cys) = DmTrxR (containing Cys) (Drosophila melanogaster, UniProt P91938); test: Inactivation of TrxR by oxidants; assay type: biochemical
Procedure: (§1) Based on data, it is expected that Sec-TrxR1 is able to metabolize both HOSCN and HOSeCN but not HOCl, and that Cys-TrxR's is unable to metabolize these oxidants. The active site Cys or Sec residue of each respective enzyme is oxidized to either Cys-SO2^− or Sec-SeO2^−. The Cys-TrxR cannot recover from this oxidation while the Sec-TrxR can. To test this, an inactivation assay is performed followed by structural analysis of the protein by MS. In the inactivation assay, (i) enzymes are reduced with NADPH, (ii) the enzymes are treated with oxidant followed by desalting to remove oxidant, and (iii) the enzyme is assayed for activity. […] The proteins are proteolyzed followed by LC-MS analyses. The LC-MS profiles are compared to control samples not treated with oxidant. This determines the exact mechanism of inactivation for each enzyme. […] This would explain why HOCl is highly inflammatory (nonspecific oxidation), and why HOSCN is used as a bactericide because it can rapidly inactivate proteins/enzyme by oxidation of sulfur amino acids (Cys, Met), but can be metabolized by the host cell by Sec-TrxR.

[1] = target: Sec-containing TrxR2 (Sec-TrxR2) (Mus musculus, UniProt Q9JLT4); test: Inactivation of TrxR by oxidants; assay type: biochemical
Sequence of Sec-containing TrxR2 (Sec-TrxR2) (Q9JLT4 35-524): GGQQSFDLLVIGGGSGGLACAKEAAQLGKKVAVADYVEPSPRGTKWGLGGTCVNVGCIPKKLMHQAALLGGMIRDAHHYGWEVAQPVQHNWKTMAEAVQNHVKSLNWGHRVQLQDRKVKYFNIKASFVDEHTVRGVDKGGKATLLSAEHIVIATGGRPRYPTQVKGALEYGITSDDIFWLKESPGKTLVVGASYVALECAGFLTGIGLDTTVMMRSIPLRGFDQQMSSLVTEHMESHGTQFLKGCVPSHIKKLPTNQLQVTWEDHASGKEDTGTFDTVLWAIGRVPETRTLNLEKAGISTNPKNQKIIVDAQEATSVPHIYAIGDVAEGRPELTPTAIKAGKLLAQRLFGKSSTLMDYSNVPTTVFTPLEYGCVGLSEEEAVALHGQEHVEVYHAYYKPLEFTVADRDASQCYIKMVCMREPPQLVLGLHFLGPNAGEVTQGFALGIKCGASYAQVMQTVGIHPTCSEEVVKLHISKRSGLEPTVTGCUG
Procedure: as §1

[2] = tested on: Burkholderia cepacia complex (BCC); test: BCC viability (CFU) after SeCN / peroxidase system; assay type: cell-based; details: full peroxidase system, 1 hour, pH 7.4
Procedure: (§2) Human bronchial epithelial cells (HBE) or Burkholderia cepacia complex (BCC) were treated for 1 hour in PBS (control), SeCN only (grey bars), glucose oxidase only (hatch bar), or full peroxidase system (black bar) at pH 7.4 and then media replaces and viability assessed 24 hours later. HBE cell viability assessed by MTT and bacterial cell viability assessed by colony forming units.

[3] = target: recombinant E. coli Cys-TrxR (Escherichia coli, UniProt P0A9P4); test: Kinetic analysis of HOSeCN metabolism; assay type: biochemical; details: similar conditions
Sequence of recombinant E. coli Cys-TrxR (P0A9P4 whole entry): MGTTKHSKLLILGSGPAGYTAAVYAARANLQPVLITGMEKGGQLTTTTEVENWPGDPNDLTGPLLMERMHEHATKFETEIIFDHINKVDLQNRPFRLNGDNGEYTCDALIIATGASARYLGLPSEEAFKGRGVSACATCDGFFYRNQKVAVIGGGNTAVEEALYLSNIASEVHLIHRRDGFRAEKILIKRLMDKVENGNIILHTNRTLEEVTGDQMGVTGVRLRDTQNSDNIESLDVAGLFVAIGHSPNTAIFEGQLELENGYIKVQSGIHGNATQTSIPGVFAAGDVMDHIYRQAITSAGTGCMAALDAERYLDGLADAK
Text: FIG. 12. Kinetic analysis of HOSeCN metabolism by recombinant mouse Sec-TrxR2 and recombinant E. coli Cys-TrxR.

[4] = tested on: Burkholderia cepacian clinical isolate; test: B. cepacia exposure to LPO and KSeCN; assay type: cell-based; details: 1000 mU/mL LPO, no GOX; 0 hr and 1 hour at 37 C
Text: (§3) FIGS. 24A and 24B show —SeCN-mediated killing of NTM requires LPO, but not GOX, while LPO/—SeCn has no effect upon B. Cepacia. […] All conditions with GOX also contained dextrose, the required substrate of GOX for H2O2 production.
(§4) Susceptibility of NTM species to both HOSCN- and HOSeCN-mediated killing. […] Given the shorter amount of time necessary for —SeCN-mediated killing of NTM compared to other bacteria species (FIGS. 24A and 24B), the possibility that the mechanism responsible for —SeCN-mediated killing of NTM was unique compared to —SCN-mediated killing of NTM and —SeCN-mediated killing of other species is determined. […] Since killing required LPO, the inventors believe that endogenous H2O2 production by NTM provided the H2O2 required for the generation of HOSeCN via LPO and —SeCN.

[5] = tested on: NTM strains (MABSC subspecies abscessus and massiliense); test: LPO and SeCN dose responses in the killing of NTM; assay type: cell-based; details: four NTM strains, dose curves of LPO and SeCN, plated on LB agar immediately after mixing
Procedure: FIGS. 25A and 25B show [LPO] and [—SeCN] dose responses in the killing of NTM. […] All samples were plated on LB immediately after mixing. CF0271-0636 and the ATCC strains were MABSC subspecies abscessus and CF0008-6241 was subspecies massiliense.
(§5) To examine the variability in susceptibility to HOSeCN-mediated killing amongst clinical NTM isolates obtained from CF airways, four NTM strains were exposed to dose curves of LPO and —SeCN (FIGS. 25A and 25B). While some variations were detected in the sensitivity to killing amongst the isolates, bacterial viability was reduced to less than 10% with all isolates when plated on LB agar immediately after reactions were mixed. Importantly, levels of —SeCN able to reduce bacterial viability were not toxic to human epithelial cells, even in the presence of GOX (FIG. 26).

[6] = tested on: Pseudomonas aeruginosa, Burkholderia cepacia complex, methicillin resistant Staphylococcus aureus; test: Killing of CF colonizing bacteria by SCN or SeCN with host defense system (LPO+GOX); assay type: cell-based; details: 400 uM with LPO+GOX, 2 hours at room temperature, CFU
Procedure: Comparisons of HOSeCN on SCN sensitive and resistant strains of (FIGS. 30A & 30B) BCC clinical isolates, (FIGS. 30C & 30D) PA clinical isolates, and (FIG. 30E & FIG. 30F) MRSA clinical isolates. Bacteria were incubated for 2 hour with LPO, ^−SCN or SeCN, glucose and increasing amounts of GOX. The flux (HOX) of either HOSCN or HOSeCN was determined from standard curves of GOX/LPO and either HOSCN or HOSeCN. LC50 values were determined by curve fitting the data with nonlinear regression of log (agonist) vs normalized response.

M. Abscessus = test: Killing of NTM clinical isolate with LPO/GOX and SCN or SeCN; assay type: cell-based; details: 1800 mU/mL LPO and 300 mU/mL GOX
Text: A HOSCN-sensitive nontuberculous Mycobacteria (NTM) clinical isolate ws exposed to LPO/GOX with either SCn or SeCN.
as §4

NTM = test: Preincubation of NTM with LPO, washing, then SeCN; assay type: cell-based; details: data not shown
Procedure: The opposite is expected to be true for highly resistant NTMs. Adding exogenous catalase or an H2O2 scavenger is expected to inhibit —SeCN-mediated killing, while inhibiting endogenous catalase activity will increase —SeCN-mediated killing. In addition, LPO activity is expected to be localized to the surface of the bacterium. […] It is expected that very little Burkholderia will be killed when incubated in the presence of NTM/LPO/—SeCN, as the highly reactive HOSeCN species will be consumed by the NTM.

[7] = tested on: clinical isolate of M. abscessus; test: SeCN-mediated killing of NTM in different buffer/media; assay type: cell-based
Procedure: FIGS. 27A-27C show —SeCN-mediaed killing of NTM requires active growth. A clinical isolate of M. abscessus was incubated in the listed buffer/media containing LPO at 1000 mU/ml and either KCL or SeCN. At the indicated time, samples were plated on LB agar as undiluted or 10× diluted in PBS. […] FIG. 27A in PBS; FIG. 27B in Middlebrook 7H9; FIG. 27C in Lysogeny Broth.
Given the reduced viability observed with immediate plating of LPO/—SeCN reactions on LB agar while —SCN-mediated killing required prolonged incubation, the possibility that HOSeCN generated on the LB agar was responsible for the loss in viability was determined. […] The inventors believe that the LPO in undiluted samples remained active on the LB agar, and that the HOSeCN-mediated killing of NTM, which was not metabolically active in the PBS buffer, requires active growth of the NTM, which occurs on the LB agar. To test this, the PBS buffer was substituted with either Middlebrook 7H9 media (without catalase) or LB broth (FIGS. 27A, 27B and 27C).

[8] = tested on: Human bronchial epithelial cells (HBE); test: HBE cell viability (MTT) after SeCN / peroxidase system; assay type: cell-based; details: 1 hour treatment, viability 24 hours later, even in the presence of GOX
Procedure: as §2, §5

[9] = tested on: clinical isolate of M. abscessus; test: NTM killing, exposure to GOX, LPO, SeCN components; assay type: cell-based; details: plated on LB agar immediately after mixing
Text: as §3, §4

[10] = Inhaled SeCN in mice, ELF and serum levels by HPLC-EC; assay type: in vivo, Mice (C57B6); details: aerosolized isotonic 0.05% (w/v) solution in PBS for 30 minutes
Procedure: Mice are exposed to aerosolized isotonic (0.9%) or isotonic ^−SeCN (0.05%) in a Plexiglas nebulizing chamber (see FIG. 32 for data). Isotonicity is maintained by substituting ^−SeCN for NaCl. All stock solutions are freshly prepared and 10 mL are nebulized over the 30 minute exposure using a pulmosonic nebulizer (DeVilbiss). Outcomes include: 1) changes in serum, ELF, lung and BAL cell GSH, ^−SCN and SeCN levels; 2) changes is lung tissue Sec-TrxR levels and activity; 3) changes in oxidative stress with assessments of DNA (8-hydroxy-2-deoxyguanosine, 8OH2dG) and lipid (4-hydroxynonenal, 4HNE) oxidation; 4) changes in lung and blood bacterial CFUs; 5) changes in bronchoalveolar lavage fluid (BALF) protein, IgM and lactate dehydrogenase (LDH) as markers of edema and injury; 6) BAL cell counts and differentials as markers of inflammation; 7) changes in BALF cytokine profile (Mouse pro-inflammatory-7 Ultra sensitive kit, IFNγ, IL-1β, IL-10, IL-12p70, IL-6, KC, TNFα, Meso Scale Discovery) as markers of inflammation; and 8) standard histopathology assessments.

16HBE cells = test: Sec-TrxR inhibition and HOSCN toxicity in lung cells (LDH release); assay type: cell-based, human; details: auranofin 1 hour, then 300 μM HOSCN, viability 24 hours later
Procedure: FIG. 19. […] 16HBE cells were treated with auranofin at increasing concentrations for 1 hour and then exposed to 300 μM of either HOSCN or HOCl and viability was assessed by lactate dehydrogenase release 24 hours later. Vehicle (Veh).
Additional studies determine both leukocyte viability and bacterial viability after ^−SCN treatments and under simulated ^−SCN conditions with and without pharmacological inhibition of Sec-TrxR using auranofin and aurothioglucose (Rigobello, M. P., et al. (2008) Gold(I) complexes determine apoptosis with limited oxidative stress in Jurkat T cells. Eur J Pharmacol 582, 26-34). […] These assays have been described to study bacterial killing by neutrophils (Hampton, M. B., and Winterbourn, C. C. (1999) Methods for quantifying phagocytosis and bacterial killing by human neutrophils. J Immunol Methods 232, 15-22). Neutrophil death is assessed by flow cytometry using % of Annexin V (apoptosis marker) and propidium iodide (PI, necrosis marker) positive cells in each gate as shown in FIG. 7.

[11] = tested on: M. massiliense clinical isolate; test: Exogenous catalase inhibition of LPO/SeCN killing of NTM; assay type: cell-based; details: high levels of catalase; 1 mM SeCN, 1600 mU/mL LPO
Procedure: FIG. 29A M. massiliense clinical isolate was incubated with 1 mM SeCN and either 1600 mU/mL LPO alone or with catalase.
It is well known that NTM species express catalase genes and have the ability to produce H2O2 (Wayne L G, Diaz G A. Detection of a novel catalase in extracts of Mycobacterium avium and Mycobacterium intracellulare. Infection and immunity. 1988; 56(4):936-41.). As H2O2 is a required substrate of LPO and no exogenous source of H2O2 is needed for LPO/—SeCN-mediated killing, it is expected that NTM provides the H2O2 for utilization by LPO to generate HOSeCN. The inventors have performed a set of experiments that provide evidence that endogenously produced H2O2 plays a role in the LPO/—SeCN-mediated killing of NTM. In FIG. 29, exogenous catalase is utilized in an attempt to inhibit the LPO-mediated generation of HOSeCN. At high levels of catalase, 100% of the killing was inhibited. The high levels of catalase required for inhibition may be due to several reasons, including instability of the enzyme on LB agar and the possibility that LPO may be bound to and concentrated on the bacterial surface, as has been previously described for Streptococci (Pruitt K M, et al. Lactoperoxidase binding to streptococci. Infection and immunity. 1979; 25(1):304-9). […]

[12] = LPO 1000 mU/ml, 0 to 4 hours, diluted 10× before plating

Sequence of DmTrxR (containing Cys) (P91938 112-596 limits assumed): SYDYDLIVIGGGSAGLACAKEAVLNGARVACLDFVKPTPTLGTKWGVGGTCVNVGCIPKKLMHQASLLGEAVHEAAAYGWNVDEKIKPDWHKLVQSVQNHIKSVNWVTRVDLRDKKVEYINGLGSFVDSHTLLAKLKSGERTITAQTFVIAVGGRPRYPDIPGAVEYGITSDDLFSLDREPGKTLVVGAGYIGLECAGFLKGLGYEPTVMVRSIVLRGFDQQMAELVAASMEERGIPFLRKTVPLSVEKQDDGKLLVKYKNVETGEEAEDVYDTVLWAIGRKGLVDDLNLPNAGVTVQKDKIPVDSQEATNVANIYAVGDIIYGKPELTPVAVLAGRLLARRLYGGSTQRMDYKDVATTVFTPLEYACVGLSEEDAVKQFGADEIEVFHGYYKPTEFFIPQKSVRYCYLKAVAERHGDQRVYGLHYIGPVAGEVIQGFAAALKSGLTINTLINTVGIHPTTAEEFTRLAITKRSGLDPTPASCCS

OCl [HOCl, hypochlorite]
Inactivation of DmTrxR by oxidant (DmTrxR (containing Cys)): is inactivated | Inactivation of Sec-TrxR2 by oxidant [1]: resists inactivation

N#C[Se]O [HOSeCN, hyposelenocyanite]
Inactivation of DmTrxR by oxidant (DmTrxR (containing Cys)): is inactivated | Inactivation of Sec-TrxR2 by oxidant [1]: resists inactivation | Bacterial cell viability (CFU) [2]: killing bacteria | HOSeCN metabolism activity [3]: no measurable activity

N#C[SeH] [SeCN, selenocyanate]
Effect of LPO and SeCN alone upon B. cepacia [4]: no effect | Bacterial viability [5]: less than 10% | Killing of thiocyanate susceptible and resistant bacteria, compared with SCN [6]: as effective or superior | Killing of M. Abscessus, compared with SCN (M. Abscessus): more efficient than SCN | Killing of NTM after LPO preincubation and washing (NTM): substantial killing | Bacterial growth in Middlebrook 7H9 media [7, 12]: prevented bacterial growth | Viability in LB broth [7, 12]: loss of viability | Killing in PBS buffer ([7]; with LPO, samples diluted 10-fold before plating on LB agar): no killing detected | Toxicity to human epithelial cells (HBE viability) [8]: not toxic | Killing of NTM with LPO, without GOX [9]: only required LPO and —SeCN | ELF SeCN levels [10]: high ELF SeCN levels | Tolerability of inhaled SeCN [10]: well tolerated

CC(=O)OC[C@H]1O[C@@H]([S-])[C@H](OC(C)=O)[C@@H](OC(C)=O)[C@@H]1OC(C)=O.CCP(CC)CC.[Au+] [auranofin]
Sensitization of lung cells to HOSCN-mediated toxicity (16HBE cells): sensitizes lung cells to HOSCN-mediated toxicity

catalase
Inhibition of LPO/SeCN-mediated killing [11]: 100%
